How the values were obtained:
[1] = system: Staphylococcus aureus 502A; test: Agar diffusion assay, S. aureus; assay type: cell-based; conditions: S. aureus 502a, FIG. 6
Experimental: (§1) The broad spectrum antimicrobial activity of indolicidin and indolicidin analogs also was determined using a gram negative bacterial strain, Escherichia coli ML35, a gram positive bacterial strain, Staphylococcus aureus 502A, and a fungus, Cryptococcus neoformans, in an agar diffusion assay, essentially as described by Hultmark et al., EMBO J. 2:571-576 (1983) as modified by Lehrer et al., J. Immunol. Meth. 137:167-173. Briefly, nutrient-containing agar (or agarose) plates were seeded with a selected target microorganism and 5-10 μl of peptide was placed into a well formed in the solid medium or onto a disc placed on the surface of the medium. Following an appropriate incubation interval, microbial growth inhibition was visualized and quantitated by measuring the clear zone around each well or disc (see, also, Selsted, 1993).

E. coli = test: Microbicidal kinetics of indolicidin; assay type: cell-based, Escherichia coli; conditions: 25 μg/ml
Experimental: (§2) The time course and dose-dependence of the antimicrobial activity of an indolicidin analog can be determined by incubating a microorganism with the analog and determining the viability after various times of incubation or after treatment with various concentrations of the analog. Assays were performed in 10 mM sodium phosphate buffer, pH 7.4, at 37° C., as described by Selsted et al. (Infect. Immun. 45:150-154 (1985), which is incorporated herein by reference).
The kinetics of indolicidin antimicrobial activity was evaluated by incubating 2×10^6 E. coli with 25 ug/ml of indolicidin for 1-40 min. Following incubation for the appropriate time, an aliquot of the culture was removed and diluted and plated as described above.

Cryptococcus neoformans = test: Agar diffusion assay, C. neoformans; assay type: cell-based; conditions: FIG. 5
Experimental: as §1

[2] = system: Staphylococcus aureus 502A; test: Dose response bactericidal assay (CFU reduction), S. aureus; assay type: cell-based; conditions: 10 ug/ml, 2 hr incubation, 2×10^6 CFU, 10 mM sodium phosphate pH 7.4, 37° C.
Experimental: as §2
(§3) The dose response of a gram negative bacterial strain, Escherichia coli ML35, and a gram positive bacterial strain, Staphylococcus aureus 502A, to indolicidin was determined by incubating 2×10^6 colony forming units (CFU) of log phase bacteria with 0-25 ug/ml of indolicidin for two hours. Following incubation, the cultures were serially diluted and plated on nutrient agar. […] E. coli was more susceptible than S. aureus, as>95% of the input cells were killed after 2 hr incubation with 2.5 ug/ml indolicidin. The indolicidin diluent, 0.01% acetic acid, had no effect on either bacterial strain.

Escherichia coli ML35 [3] = test: Agar diffusion assay, E. coli; assay type: cell-based; conditions: E. coli ML35, FIG. 4
Experimental: as §1

Escherichia coli ML35 [4] = test: Dose response bactericidal assay (CFU reduction), E. coli; assay type: cell-based; conditions: 2 hr incubation
Experimental: as §2, §3

[5] = five attempts to raise antibodies
erythrocyte suspension = test: Hemolytic assay (erythrocyte lysis assay); assay type: cell-based; conditions: for % Hemolysis: 30 μg peptide, 18 hr at 37° C., 100% lysis = 1% NP40
Experimental: The hemolytic activity of each peptide was examined using an erythrocyte lysis assay. An 8% (vol:vol) erythrocyte suspension in normal saline or in 80% mouse serum was incubated with 30 μg peptide. After 18 hr incubation at 37° C. intact erythrocytes were removed by centrifugation and the A550 of the supernatant was determined as a measure of hemolysis. As a control (100% lysis), supernatant was collected from an erythrocyte suspension treated with 1% NP40 detergent.

[6] = saline, 8% erythrocyte suspension in normal saline
[7] = serum, 8% erythrocyte suspension in 80% mouse serum

Compound	antimicrobial activity (clear zone) compared with indolicidin [1]	antimicrobial activity (clear zone) compared with indolicidin (Cryptococcus neoformans)	antimicrobial activity (clear zone) compared with indolicidin (Escherichia coli ML35 [3])	% Hemolysis (erythrocyte suspension; [6])	% Hemolysis (erythrocyte suspension; [7])	further results
CC[C@H](C)[C@H](N)C(=O)N[C@@H](CC(C)C)C(=O)N1CCC[C@H]1C(=O)N[C@@H](Cc1c[nH]c2ccccc12)C(=O)N[C@@H](CCCCN)C(=O)N[C@@H](Cc1c[nH]c2ccccc12)C(=O)N1CCC[C@H]1C(=O)N[C@@H](Cc1c[nH]c2ccccc12)C(=O)N[C@@H](Cc1c[nH]c2ccccc12)C(=O)N1CCC[C@H]1C(=O)N[C@@H](Cc1c[nH]c2ccccc12)C(=O)N[C@@H](CCCNC(=N)N)C(=O)N[C@@H](CCCNC(=N)N)C(N)=O [Indol-R12 R13 --NH2, H2 N--I--L--P--W--K--W--P--W--W--P--W--R--R--CONH2]	greatest antimicrobial activity	greatest antimicrobial activity	greatest antimicrobial activity	78.5%	2.3%	state of the culture (E. coli; after 20 min): essentially was sterilized; reduction of number of E. coli CFU (E. coli; within 5 min): three orders of magnitude; reduction of viability (CFU) [2]: reduced by at least four orders of magnitude; input cells killed (Escherichia coli ML35 [4]; 2.5 ug/ml): > 95%; reduction of viability (CFU) (Escherichia coli ML35 [4]; 10 ug/ml, 2×10^6 CFU, 10 mM sodium phosphate pH 7.4, 37° C.): reduced by at least four orders of magnitude; immunogenicity [5]: extremely low immunogenicity; % Hemolysis (erythrocyte suspension; saline, 8% erythrocyte suspension in normal saline, listed as indolicidin): greatest hemolytic activity
CC[C@H](C)[C@H](N)C(=O)N[C@@H](CC(C)C)C(=O)N1CCC[C@H]1C(=O)N[C@@H](Cc1c[nH]c2ccccc12)C(=O)N[C@@H](CCCCN)C(=O)N[C@@H](Cc1c[nH]c2ccccc12)C(=O)N1CCC[C@H]1C(=O)N[C@@H](Cc1c[nH]c2ccccc12)C(=O)N[C@@H](Cc1c[nH]c2ccccc12)C(=O)N1CCC[C@H]1C(=O)N[C@@H](Cc1c[nH]c2ccccc12)C(=O)N[C@@H](CCCNC(=N)N)C(=O)N[C@@H](CCCNC(=N)N)C(=O)O [Indol-R12 R13 --OH, H2 N--I--L--P--W--K--W--P--W--W--P--W--R--R--OH]				47.9%	3.0%	
H2 N--I--L--P--W--K--W--P--W--W--P--W--R--OH (H-ILPWKWPWWPWR-OH) [Indol-R12 --OH, indolicidin analog]	markedly less potent than indolicidin	markedly less potent than indolicidin	markedly less potent than indolicidin			
H2 N--I--L--P--W--K--W--P--W--W--P--W--R--N--CONH2 [Indol-R12 W13 --NH2]	markedly less potent than indolicidin	markedly less potent than indolicidin	markedly less potent than indolicidin			
H2 N--I--L--P--W--K--W--P--W--W--P--W--K--CONH2 (H-ILPWKWPWWPWK-NH2) [Indol-K12 --NH2, indolicidin analog having a deletion of R-13 and a substitution of K-12 for R-12]						antimicrobial selectivity (antimicrobial activity relative to hemolytic activity) compared with indolicidin (erythrocyte suspension; FIGS. 4-6 and Table 2): greater antimicrobial selectivity than indolicidin

— patent US5547939A, “Broad spectrum antimicrobial compounds and methods of use” (priority 1994, dated 1996)
